The values below come from patent US20200237766A1, “PKM2 ACTIVATORS IN COMBINATION WITH REACTIVE OXYGEN SPECIES FOR TREATMENT OF CANCER” (TOLERO PHARMACEUTICALS, INC., priority 2017, published 2020).

SMILES strings stand for the structures. Where two headings read alike, the source gives them in different places.

In the experiment the target is PKM2 (Homo sapiens, UniProt P14618). Put plainly: PKM2 activation biochemical assay (AC50 / max. response vs fructose 1,6-bisphosphate). The settings on record: for Max. Resp. (%): % maximum response in a biochemical assay as compared with Fructose 1,6-bisphosphate.
[1] abbreviates: biochemical assay, read-out: PKM2 AC50.

PKM2, sequence (P14618 whole entry): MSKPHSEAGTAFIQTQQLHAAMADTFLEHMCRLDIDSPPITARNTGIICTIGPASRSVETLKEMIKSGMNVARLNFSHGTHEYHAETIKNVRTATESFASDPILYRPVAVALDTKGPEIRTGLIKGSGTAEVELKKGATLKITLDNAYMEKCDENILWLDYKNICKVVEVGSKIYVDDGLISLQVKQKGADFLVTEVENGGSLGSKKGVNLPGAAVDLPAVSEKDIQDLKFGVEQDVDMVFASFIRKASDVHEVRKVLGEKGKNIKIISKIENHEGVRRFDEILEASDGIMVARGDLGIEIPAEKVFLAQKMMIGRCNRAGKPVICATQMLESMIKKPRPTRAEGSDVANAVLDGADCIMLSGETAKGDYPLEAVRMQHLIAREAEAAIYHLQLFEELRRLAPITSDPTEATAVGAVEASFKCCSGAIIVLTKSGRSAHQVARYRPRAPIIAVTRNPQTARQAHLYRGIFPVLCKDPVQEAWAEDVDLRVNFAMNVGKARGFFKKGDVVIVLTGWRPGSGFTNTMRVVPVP

With `O=C(c1cc(C(F)(F)F)n[nH]1)N(CCN1CCCCCC1)Cc1ccc(O)cc1F` [Compound 195], the AC50 (commonly the midpoint of the concentration-response curve, whichever way the signal moves) came to 95 nM and the “Max. Resp. (%)” value is 100%.

Regarding `Nc1ccc(Cl)c(CN(CCN2CCCCCC2)C(=O)c2cc(C(F)(F)F)n[nH]2)c1` [Compound 196], the “Max. Resp. (%)” value was determined as 100%. Moreover, the half-maximal activity concentration (AC50) under setting [1] came out at 99 nM. `O=C(c1cc(C(F)(F)F)n[nH]1)N(CCN1CCCCCC1)Cc1ccccc1F` [Compound 197]: the “Max. Resp. (%)” value is 100%. In addition, the AC50 under setting [1] amounted to 63 nM.

With `O=C(c1cc(C(F)(F)F)n[nH]1)N(CCN1CCCCCC1)Cc1c(F)cccc1F` [Compound 198], the “Max. Resp. (%)” value worked out at 100%. The AC50 under setting [1] was found to be 130 nM. Take `CCC1CCN(CCN(Cc2ccccc2Cl)C(=O)c2cc(C(F)(F)F)n[nH]2)CC1` [Compound 199]: the “Max. Resp. (%)” value is 100/100%. Further, under setting [1], the AC50 came out at 100 nM.

Turning to `CC1CCCN(CCN(Cc2cc(N)ccc2Cl)C(=O)c2cc(C(F)(F)F)n[nH]2)C1` (stereo not drawn) [Compound 200], the “Max. Resp. (%)” value is listed as 100%. Also, the AC50 under setting [1] is 130 nM. Turning to `CC1CCCN(CCN(Cc2ccccc2F)C(=O)c2cc(C(F)(F)F)n[nH]2)C1` (stereo not drawn) [Compound 201], the “Max. Resp. (%)” value was determined as 100%. For the same molecule, the AC50 under setting [1] was 215 nM. `CC1CCCCN1CCN(Cc1cc(N)ccc1Cl)C(=O)c1cc(C(F)(F)F)n[nH]1` (stereo not drawn) [Compound 202]: the “Max. Resp. (%)” value is reported as 100%. In addition, the AC50 under setting [1] stood at 395 nM. Take `CC1CCCCN1CCN(Cc1ccccc1F)C(=O)c1cc(C(F)(F)F)n[nH]1` (stereo not drawn) [Compound 203]: the “Max. Resp. (%)” value worked out at 100%. Further, the AC50 under setting [1] came to 550 nM.

As for `CCN(CCN(Cc1ccccc1Cl)C(=O)c1cc(C(F)(F)F)n[nH]1)C(C)C` [Compound 204], the “Max. Resp. (%)” value stood at 53%. Besides, under setting [1], the AC50 came to 880 nM. In the case of `O=C(c1cc(C(F)(F)F)n[nH]1)N(CCN1CCC(F)(F)CC1)Cc1ccccc1Cl` [Compound 205], the “Max. Resp. (%)” value came out at 100%. Further, under setting [1], the AC50 worked out at 2050 nM. In the same order, the values of `O=C(c1cc(C(F)(F)F)n[nH]1)N(CCN1CCCC1)Cc1cccc2[nH]cc(F)c12` [Compound 206] are 100% and 136 nM. Consider `Nc1ccc(CN(CCN2CCCCCC2)C(=O)c2cc(C(F)(F)F)n[nH]2)c(Cl)c1` [Compound 207], for which the “Max. Resp. (%)” value is listed as 75%. Besides, under setting [1], the AC50 came to 170 nM. For the molecule `O=C(c1cc(C(F)(F)F)n[nH]1)N(CCN1CCCCCC1)Cc1cccc2nc[nH]c12` [Compound 208], the “Max. Resp. (%)” value stood at 100%. The AC50 under setting [1] was 125 nM. Regarding `CCCN(CC)CCN(Cc1ccccc1Cl)C(=O)c1cc(C(F)(F)F)n[nH]1` [Compound 209], the “Max. Resp. (%)” value is 100%. In addition, the AC50 under setting [1] worked out at 52 nM. For `O=C(c1cc(C(F)(F)F)n[nH]1)N(CCN1CCCCCC1)Cc1cccc([N+](=O)[O-])c1Cl` [Compound 210], the AC50 came to 133 nM and the “Max. Resp. (%)” value came out at 100%.

With `O=C(c1cc(C(F)(F)F)n[nH]1)N(CCN1CCCCCC1)Cc1c(Cl)cccc1[N+](=O)[O-]` [Compound 211], the “Max. Resp. (%)” value is 100%. In addition, the AC50 under setting [1] is 123 nM. For `CC1CCCC(C)N1CCN(Cc1ccccc1Cl)C(=O)c1cc(C(F)(F)F)n[nH]1` (stereo not drawn) [Compound 212], the “Max. Resp. (%)” value is recorded as 53%. Besides, the AC50 under setting [1] is 5810 nM. Take `Nc1cccc(CN(CCN2CCCCCC2)C(=O)c2cc(C(F)(F)F)n[nH]2)c1Cl` [Compound 213]: the activity was half-maximal at 60 nM (AC50) and the “Max. Resp. (%)” value worked out at 100%.

As for `Nc1ccc(F)c(CN(CCN2CCCCCC2)C(=O)c2cc(C(F)(F)F)n[nH]2)c1` [Compound 214], the “Max. Resp. (%)” value amounted to 100%. Further, the AC50 under setting [1] is 153 nM. Consider `COc1ccc(N)cc1CN(CCN1CCCCCC1)C(=O)c1cc(C(F)(F)F)n[nH]1` [Compound 215], for which the “Max. Resp. (%)” value is recorded as 100%. Moreover, the AC50 under setting [1] stood at 1190 nM. As for `Nc1cccc(CN(CCN2CCCCCC2)C(=O)c2cc(C(F)(F)F)n[nH]2)c1F` [Compound 216], the “Max. Resp. (%)” value came out at 100%. Moreover, the AC50 under setting [1] is 117 nM. Regarding `COc1c(N)cccc1CN(CCN1CCCCCC1)C(=O)c1cc(C(F)(F)F)n[nH]1` [Compound 217], the “Max. Resp. (%)” value was found to be 100%. The AC50 under setting [1] was 230 nM.

Take `Nc1cccc(Cl)c1CN(CCN1CCCCCC1)C(=O)c1cc(C(F)(F)F)n[nH]1` [Compound 218]: the “Max. Resp. (%)” value is on record as 100%. The AC50 under setting [1] stood at 41 nM.

On to `O=C(c1cc(C(F)(F)F)n[nH]1)N(CCN1CCC(O)CC1)Cc1ccccc1Cl` [Compound 219], for which the “Max. Resp. (%)” value was determined as 100%. Also, under setting [1], the AC50 turned out to be 1300 nM. With `O=C(c1cc(C(F)(F)F)n[nH]1)N(CCN1CCCC(O)C1)Cc1ccccc1Cl` (stereo not drawn) [Compound 220], the “Max. Resp. (%)” value is 100%. Further, the AC50 under setting [1] is 465 nM. In the case of `CC(CN(Cc1c(N)cccc1Cl)C(=O)c1cc(C(F)(F)F)n[nH]1)N1CCCC1` (stereo not drawn) [Compound 221], the “Max. Resp. (%)” value is 60%. The AC50 under setting [1] was found to be 223 nM.

As to `Nc1cccc(Cl)c1CN(CCN1CCCC1)C(=O)c1cc(C(F)(F)F)n[nH]1` [Compound 222], the AC50 was 56 nM and the “Max. Resp. (%)” value is 100%. In the case of `CCCN(CC)CCN(Cc1c(N)cccc1Cl)C(=O)c1cc(C(F)(F)F)n[nH]1` [Compound 223], the activity was half-maximal at 32 nM (AC50) and the “Max. Resp. (%)” value came out at 100%. Regarding `Nc1cccc(Cl)c1CN(CCN1CCS(=O)(=O)CC1)C(=O)c1cc(C(F)(F)F)n[nH]1` [Compound 224], the “Max. Resp. (%)” value came out at 100%. The AC50 under setting [1] came to 410 nM.

With `Nc1cccc(Cl)c1CN(CCN1CCCC(O)C1)C(=O)c1cc(C(F)(F)F)n[nH]1` (stereo not drawn) [Compound 225], the “Max. Resp. (%)” value stood at 100%. The half-maximal activity concentration (AC50) under setting [1] was 102 nM. As to `NC1CC(N(Cc2ccccc2Cl)C(=O)c2cc(C(F)(F)F)n[nH]2)C1` (stereo not drawn) [Compound 226], the “Max. Resp. (%)” value was 80%. Also, the AC50 under setting [1] stood at 12000 nM. The like results for `O=C(c1cc(C(F)(F)F)n[nH]1)N(Cc1ccccc1Cl)CC1CCN1` (stereo not drawn) [Compound 227] were, in that order, 100% and 215 nM. In the same order, the values of `CS(=O)(=O)N1CCCC(CCN(Cc2ccccc2Cl)C(=O)c2cc(C(F)(F)F)n[nH]2)C1` (stereo not drawn) [Compound 228] are 100% and 2000 nM.

Take `O=C(c1cc(C(F)(F)F)n[nH]1)N(CCc1ccc(O)cc1)Cc1ccccc1Cl` [Compound 230]: the “Max. Resp. (%)” value was found to be 100%. Further, the AC50 under setting [1] is 12000 nM. The like results for `O=C(c1cc(C(F)(F)F)n[nH]1)N(Cc1ccccc1Cl)CC1CCCN1` (stereo not drawn) [Compound 232] were, in that order, 85% and 320 nM. `Nc1cccc(Cl)c1CN(CC1CCN1)C(=O)c1cc(C(F)(F)F)n[nH]1` (stereo not drawn) [Compound 233]: the “Max. Resp. (%)” value is recorded as 75%. Also, the AC50 under setting [1] is 930 nM.

On to `Nc1cccc(Cl)c1CN(CCN1CCC(O)C1)C(=O)c1cc(C(F)(F)F)n[nH]1` (stereo not drawn) [Compound 234], for which the “Max. Resp. (%)” value is 100%. Besides, the half-maximal activity concentration (AC50) under setting [1] was 111 nM. In the case of `COC1CCN(CCN(Cc2c(N)cccc2Cl)C(=O)c2cc(C(F)(F)F)n[nH]2)C1` (stereo not drawn) [Compound 235], the “Max. Resp. (%)” value is recorded as 100%. Also, the AC50 under setting [1] is 133 nM. On to `Nc1cccc(Cl)c1CN(CCN1CCCC(F)C1)C(=O)c1cc(C(F)(F)F)n[nH]1` (stereo not drawn) [Compound 236], for which the “Max. Resp. (%)” value was 73%. The AC50 under setting [1] is 160 nM. `COC1CCCN(CCN(Cc2c(N)cccc2Cl)C(=O)c2cc(C(F)(F)F)n[nH]2)C1` (stereo not drawn) [Compound 237]: the “Max. Resp. (%)” value is on record as 100%. In addition, the AC50 under setting [1] stood at 183 nM. For `Nc1cccc(Cl)c1CN(CCN1CCC(F)CC1)C(=O)c1cc(C(F)(F)F)n[nH]1` [Compound 238], the “Max. Resp. (%)” value is reported as 100%. Also, under setting [1], the AC50 is 116 nM. In the case of `Nc1cccc(Cl)c1CN(CCN1CCCOCC1)C(=O)c1cc(C(F)(F)F)n[nH]1` [Compound 239], the activity was half-maximal at 115 nM (AC50) and the “Max. Resp. (%)” value came out at 100%. `CCCN(CC)CCN(Cc1c(N)cccc1F)C(=O)c1cc(C(F)(F)F)n[nH]1` [Compound 240]: the “Max. Resp. (%)” value came out at 100%. The AC50 under setting [1] turned out to be 68 nM. In the case of `Nc1cccc(Cl)c1CN(CCN1CC[C@H](F)C1)C(=O)c1cc(C(F)(F)F)n[nH]1` [Compound 241], the activity was half-maximal at 125 nM (AC50) and the “Max. Resp. (%)” value turned out to be 100%.

For `Nc1cccc(Cl)c1CN(CCN1CC[C@@H](F)C1)C(=O)c1cc(C(F)(F)F)n[nH]1` [Compound 242], the AC50 amounted to 465 nM and the “Max. Resp. (%)” value came out at 100%. For the molecule `Nc1cccc(Cl)c1CN(CCN1CCCC(F)CC1)C(=O)c1cc(C(F)(F)F)n[nH]1` (stereo not drawn) [Compound 243], the “Max. Resp. (%)” value is 100%. Also, under setting [1], the AC50 stood at 106 nM.

For `O=C(c1cc(C(F)(F)F)n[nH]1)N(Cc1ccc(O)cc1F)CC1CCC1` [Compound 244], the “Max. Resp. (%)” value worked out at 107%. The AC50 under setting [1] amounted to 62 nM.

For `O=C(c1cc(Br)n[nH]1)N(Cc1ccc(O)cc1F)CC1CCC1` [Compound 245], the “Max. Resp. (%)” value was found to be 100%. For the same molecule, under setting [1], the AC50 stood at 35 nM. With `O=C(c1cc(C2CC2)n[nH]1)N(Cc1ccc(O)cc1F)CC1CCC1` [Compound 246], the “Max. Resp. (%)” value came out at 85%.

With `O=C(CCSC(=S)NCc1cccnc1)c1ccccc1` [PMA8], the “Max. Resp. (%)” value is 24%. Also, under setting [1], the AC50 stood at 7640 nM. `O=C(CCSC(=S)NCc1cccnc1)c1ccc(Cl)cc1` [PMA9]: the AC50 under setting [1] is greater than 20000 nM.

In the case of `O=C(CCSC(=S)NCc1cccnc1)c1ccc(F)cc1` [PMA10], the “Max. Resp. (%)” value is on record as 48%. The AC50 under setting [1] turned out to be 9830 nM. For the molecule `O=C(CCSC(=S)NCc1cccnc1)c1ccc(O)cc1` [PMA11], the “Max. Resp. (%)” value is recorded as 76%. Besides, the AC50 under setting [1] turned out to be 6230 nM. Turning to `N#Cc1ccc(C(=O)CCSC(=S)NCc2cccnc2)cc1` [PMA12], the “Max. Resp. (%)” value is given as 61%. Moreover, the AC50 under setting [1] stood at 4390 nM. In the same order, the values of `O=C(CCSC(=S)NCc1cccnc1)c1ccc([N+](=O)[O-])cc1` [PMA13] are 49% and 2760 nM. For `O=C(CCSC(=S)NCc1cccnc1)c1ccc(OCc2ccccc2)cc1` [PMA15], the AC50 under setting [1] was greater than 20000 nM.
